Data taken from the NIST ThermoML archive (doi:10.1021/je0499364).

Tests used:
[1] = Crystal
[2] = Molar enthalpy of transition or fusion; conditions: Crystal
[3] = molar heat capacity at constant pressure; conditions: 101.33 kPa

CCCCCCCCCC(=O)OC [methyl decanoate]
Conditions | Molar enthalpy of transition or fusion [kcal/mol] | Triple point temperature [K]
[1] | – | 260.33
[2] | 8.58 | –

[3]
Conditions | molar heat capacity at constant pressure [J/K/mol]
5 K, Crystal | 0.45
10 K, Crystal | 3.7
20 K, Crystal | 20.01
30 K, Crystal | 37.87
40 K, Crystal | 57.28
50 K, Crystal | 75.63
60 K, Crystal | 91.46
70 K, Crystal | 105.95
80 K, Crystal | 119.09
90 K, Crystal | 131.08
100 K, Crystal | 141.62
110 K, Crystal | 151.65
120 K, Crystal | 160.63
130 K, Crystal | 169.23
140 K, Crystal | 177.35
150 K, Crystal | 185.25
160 K, Crystal | 192.99
170 K, Crystal | 200.77
180 K, Crystal | 209.01
190 K, Crystal | 217.44
200 K, Crystal | 226.26
210 K, Crystal | 234.91
220 K, Crystal | 245.06
230 K, Crystal | 256.05
240 K, Crystal | 269.17
250 K, Crystal | 300.63
270 K, Liquid | 361.09
280 K, Liquid | 368.72
290 K, Liquid | 372.12
300 K, Liquid | 376.14
310 K, Liquid | 380.31
320 K, Liquid | 385.19
330 K, Liquid | 389.78
340 K, Liquid | 394.95
350 K, Liquid | 400.2

CCCCCCCCCCCC(=O)OC [methyl dodecanoate]
Conditions | Molar enthalpy of transition or fusion [kcal/mol] | Triple point temperature [K]
[1] | – | 278.18
[2] | 10.3 | –

[3]
Conditions | molar heat capacity at constant pressure [J/K/mol]
5 K, Crystal | 0.5
10 K, Crystal | 4.31
20 K, Crystal | 19.62
30 K, Crystal | 40.21
40 K, Crystal | 63.08
50 K, Crystal | 85.07
60 K, Crystal | 103.02
70 K, Crystal | 119.02
80 K, Crystal | 134.57
90 K, Crystal | 148.81
100 K, Crystal | 160.46
110 K, Crystal | 171.83
120 K, Crystal | 181.94
130 K, Crystal | 191.82
140 K, Crystal | 201.16
150 K, Crystal | 209.76
160 K, Crystal | 218.85
170 K, Crystal | 227.97
180 K, Crystal | 237.26
190 K, Crystal | 246.66
200 K, Crystal | 256.21
210 K, Crystal | 265.84
220 K, Crystal | 277.21
230 K, Crystal | 288.57
240 K, Crystal | 299.95
250 K, Crystal | 315.69
260 K, Crystal | 335.52
270 K, Crystal | 392.98
280 K, Liquid | 428
290 K, Liquid | 432.76
300 K, Liquid | 438.82
310 K, Liquid | 443.32
320 K, Liquid | 448.38
330 K, Liquid | 453.83
340 K, Liquid | 460.08
350 K, Liquid | 467.86

CCCCCCCCCCCCCCCCCCCC(=O)OC [methyl eicosanoate]
Conditions | Molar enthalpy of transition or fusion [kcal/mol] | Triple point temperature [K]
[1] | – | 319.48
[2] | 18.83 | –

[3]
Conditions | molar heat capacity at constant pressure [J/K/mol]
5 K, Crystal | 0.75
10 K, Crystal | 5.46
20 K, Crystal | 28.85
30 K, Crystal | 56.97
40 K, Crystal | 89.89
50 K, Crystal | 122.31
60 K, Crystal | 149.98
70 K, Crystal | 176.8
80 K, Crystal | 199.8
90 K, Crystal | 220.14
100 K, Crystal | 235.76
110 K, Crystal | 255.12
120 K, Crystal | 271.01
130 K, Crystal | 285.48
140 K, Crystal | 299.45
150 K, Crystal | 313.11
160 K, Crystal | 326.52
170 K, Crystal | 339.86
180 K, Crystal | 353.31
190 K, Crystal | 366.99
200 K, Crystal | 381.11
210 K, Crystal | 395.71
220 K, Crystal | 411.05
230 K, Crystal | 427.04
240 K, Crystal | 443.77
250 K, Crystal | 461.58
260 K, Crystal | 480.5
270 K, Crystal | 501.55
280 K, Crystal | 525.09
290 K, Crystal | 551.06
300 K, Crystal | 585.33
330 K, Liquid | 714.47
340 K, Liquid | 722.28
350 K, Liquid | 732.2
